# Test results reported in publication PMC12316058 (Nature chemical biology, 2024).
# Key:
# Ll Nox = target: T1, Ll Nox (Lactococcus cremoris, UniProt A2RIB7); experiment: absorbance at […] nm, initial rates; assay type: biochemical; details: 50 mM Tris-Cl pH 7.0, 37 °C; O2 as acceptor
# T1 sequence (A2RIB7 1-446): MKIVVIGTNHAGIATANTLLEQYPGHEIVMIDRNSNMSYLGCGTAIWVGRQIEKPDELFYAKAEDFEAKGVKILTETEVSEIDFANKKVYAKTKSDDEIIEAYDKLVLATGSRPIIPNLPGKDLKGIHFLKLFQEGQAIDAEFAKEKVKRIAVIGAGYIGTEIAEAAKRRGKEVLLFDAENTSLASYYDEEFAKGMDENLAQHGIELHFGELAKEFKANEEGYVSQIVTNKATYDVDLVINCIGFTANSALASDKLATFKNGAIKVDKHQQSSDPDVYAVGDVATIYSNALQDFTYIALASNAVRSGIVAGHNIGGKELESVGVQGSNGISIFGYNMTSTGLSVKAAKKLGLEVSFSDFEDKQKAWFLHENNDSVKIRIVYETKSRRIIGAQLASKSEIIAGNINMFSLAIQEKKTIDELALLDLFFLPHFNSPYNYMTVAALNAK
# Cs (R)-Bdh = target: T2, Cs (R)-Bdh (Clostridium saccharoperbutylacetonicum, UniProt M1MWX5); experiment: specific activity, absorbance at […] nm; assay type: biochemical; details: 10 mM m-BDO, 4 mM NADP+, 50 mM glycine-NaOH pH 10.0
# T2 sequence (M1MWX5 1-361): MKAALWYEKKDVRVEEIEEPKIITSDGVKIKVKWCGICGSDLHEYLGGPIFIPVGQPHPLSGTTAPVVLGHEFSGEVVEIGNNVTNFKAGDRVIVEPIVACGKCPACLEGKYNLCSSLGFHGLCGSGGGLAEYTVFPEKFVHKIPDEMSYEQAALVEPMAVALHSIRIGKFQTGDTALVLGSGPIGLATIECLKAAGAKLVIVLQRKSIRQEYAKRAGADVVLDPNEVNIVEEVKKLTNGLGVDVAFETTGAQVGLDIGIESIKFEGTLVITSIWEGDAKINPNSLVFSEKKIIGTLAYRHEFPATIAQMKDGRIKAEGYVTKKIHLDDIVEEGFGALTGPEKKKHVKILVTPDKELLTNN
SMILES,kcat/Km app (Ll Nox),specific activity (Cs (R)-Bdh)
NC(=O)C1=CN([C@@H]2O[C@H](COP(=O)(O)O)[C@@H](O)[C@H]2O)C=CC1 [NMNH],"Ll Nox WT (gray) and Nox Ortho (yellow) toward NADH, NADPH and NMNH",–
NC(=O)c1ccc[n+]([C@@H]2O[C@H](COP(=O)(O)OP(=O)(O)OC[C@H]3O[C@@H](n4cnc5c(N)ncnc54)[C@H](OP(=O)(O)O)[C@@H]3O)[C@@H](O)[C@H]2O)c1 [NADP+],–,We subsequently confirmed specific activity with NADP^+
